The target in this test is T1, Human CCR3 (Homo sapiens, UniProt P51677).
T1 construct: The cloned CCR3 cDNA was constructed with pcDNA3 vector and transfected into a K562 cell line; expressed in transfected cells
T1 sequence (P51677 1-355): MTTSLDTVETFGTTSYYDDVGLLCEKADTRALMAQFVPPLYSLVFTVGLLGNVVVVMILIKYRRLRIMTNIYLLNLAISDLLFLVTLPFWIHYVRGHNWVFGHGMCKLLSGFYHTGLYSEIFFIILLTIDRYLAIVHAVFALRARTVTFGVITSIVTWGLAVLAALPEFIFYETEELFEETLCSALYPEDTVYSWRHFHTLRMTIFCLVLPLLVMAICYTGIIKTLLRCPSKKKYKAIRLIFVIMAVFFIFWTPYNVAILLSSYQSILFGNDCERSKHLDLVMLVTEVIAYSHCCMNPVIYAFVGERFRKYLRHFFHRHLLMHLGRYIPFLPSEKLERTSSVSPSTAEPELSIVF
The test can be described thus: Receptor binding assay (RBA), [125I]-eotaxin on human CCR3-transformed K562 cells. To be noted: compounds of about 40 to 90% purity, read-out: Activity grade CCR3. The method, then: [Determination of IC50 Values of Compounds in Receptor Binding Assay]
• Human CCR3-transformed K562 cells were used. The cloned CCR3 cDNA was constructed with pcDNA3 vector and transfected into a K562 cell line. The human CCR3-transformed K562 cells were maintained in RPMI-1640 (Cat.#22400-089, Life Technologies) supplemented with 10% FCS (Cat.#A-1115-L, Hyclone), 55 μM 2-mercaptoethanol (Cat.#21985-023, Life Technologies), 1 mM sodium pyruvate (Cat.#11360-070, Life Technologies), 100 units/ml of penicillin G and 100 μg/ml of streptomycin (Cat.#15140-122, Life Technologies), and 0.4 mg/ml of Geneticin (Cat.#10131-035, Life Technologies) (hereinafter called “culture medium”). Before the receptor binding assay, cells were pretreated with 5 mM sodium butyrate (Cat.#193-01522, Wako)-containing the culture medium (2×10^5 cells/ml) for 20-24 hours to increase the expression of CCR3. (2) Receptor Binding Assay • Butyrate-pretreated cells, suspended in binding buffer (25 mM HEPES pH 7.6, 1 mM CaCl2, 5 mM MgCl2, 0.5% BSA, 0.1% NaN3) at a cell density of 2×10^6 cells/ml, were added into 60 μl/well in the 96-well round bottom polypropylene plate (Cat.#3365, Costar). Compounds, diluted with the binding buffer (4-times higher concentration of the final concentration), were added into 30 μl/well in the polypropylene plate. [^125I]-labeled human eotaxin (Cat.#IM290, Amersham Pharmacia Biotech), diluted with the binding buffer at the concentration of 0.4 nM (final concentration; 0.1 nM), was added into 30 μl/well in the polypropylene plate. Total 120 μl/well of binding reaction mixture (60 μl/well of cell suspension, 30 μl/well of compound solution, and 30 μl/well of [^125I]-labeled eotaxin) were incubated in the polypropylene plate for 1 hour at room temperature after the incubation, 100 μl/well of the reaction mixture was transferred to a filtration plate (Cat.#MAFB-N0B, Millipore), and washed with the washing buffer (25 mM HEPES pH 7.6, 1 mM CaCl2, 5 mM MgCl2, 0.5% BSA, 0.1% NaN3, 0.5 M NaCl) twice. The 96-well filtration plate was pretreated with 100 μl/well of 0.5% polyethylenimine (Cat.#P-3143, Sigma) for 2-4 hours at room temperature and washed with the washing buffer twice before use. The non-specific binding was determined by parallel incubation in the presence of 500 nM of non-labeled eotaxin (Cat.#23209, Genzyme Techne). The radioactivities remained on the filter were measured by liquid scintillation counter (TopCount™, Packard) after an addition of 45 μl/well of scintillant (Microscint20, Cat.#6013621, Packard). The inhibition percent at each concentration of compound was calculated, and IC50 values were determined from the inhibition curve. [Determination of IC50 Values of Compounds in Calcium Mobilization Assay] (1) Cell • Human CCR3-transformed K562 cells were used. The human CCR3-transformed K562 cells were maintained in RPMI-1640 supplemented with 10% FCS, 55 μM 2-mercaptoethanol (Cat.#21985-023, Life Technologies), 1 mM sodium pyruvate, 100 units/ml of penicillin G and 100 μg/ml of streptomycin, and 0.4 mg/ml of Geneticin. Before the calcium mobilization assay, cells were pretreated with 5 mM sodium butyrate-containing the culture medium (2×10^5 cells/ml) for 20-24 hours to increase the expression of CCR3. (2) Calcium Mobilization Assay • Butyrate-pretreated cells were loaded with Fluo-3AM (Cat.#F-1242, Molecular Probes) in loading buffer (Hanks' solution Cat.#05906 Nissui, 20 mM HEPES pH 7.6, 0.1% BSA, 1 mM probenecid Cat.#P-8761 Sigma, 1 μM Fluo-3AM, 0.01% pluronic F-127 Cat.#P-6866 Molecular Probes) at a cell density of 1×10^7 cells/ml. Then, cells were washed with calcium assay buffer (Hanks' solution Cat.#05906 Nissui, 20 mM HEPES pH 7.6, 0.1% BSA, 1 mM Probenecid Cat.#P-8761 Sigma). The cell suspension (3.3×10^6 cells/ml) was added into 60 μl/well in the 96-well clear bottom black plate (Cat.#3904, Costar). […]

Counter-ions that a name gives are not always drawn. Where only a bound is given, the exact number is not on record here.

Regarding `N#Cc1ccc(Oc2cc(Cl)cc(Cl)c2)c(S(=O)(=O)N[C@H]2CN3CCC2CC3)c1` [Example 1-1, N—(R)-(+)-(1-aza-bicyclo[2.2.2]oct-3-yl)-5-cyano-2-(3,5-dichloro-phenoxy)-benzenesulfonamide], the IC50 was less than 100 nM.

`CN(C)CCN(CCN1C(=O)CCC1=O)S(=O)(=O)c1cc(C#N)ccc1Oc1cc(Cl)cc(Cl)c1` [Example 1-2, 5-cyano-2-(3,5-dichloro-phenoxy)-N-(2-dimethylamino-ethyl)-N-[2-(2,5-dioxo-pyrrolidin-1-yl)-ethyl]-benzenesulfonamide]: the IC50 is less than 100 nM.

With `N#Cc1ccc(Oc2cc(Cl)cc(Cl)c2)c(S(=O)(=O)N2CCN[C@@H](Cc3c[nH]c4ccccc34)C2)c1` [Example 1-3, 4-(3,5-dichloro-phenoxy)-3-[(3S)-(1H-indol-3-ylmethyl)-piperazine-1-sulfonyl]-benzonitrile], the IC50 is less than 100 nM.

Take `N#Cc1ccc(Oc2cc(Cl)cc(Cl)c2)c(S(=O)(=O)N2CCNCC2Cn2cncn2)c1` (stereo not drawn) [Example 1-4, 4-(3,5-dichlorophenoxy)-3-{[2-(1H-1,2,4-triazol-1-ylmethyl)-1-piperazinyl]sulfonyl}benzonitrile hydrochloride]: the IC50 is less than 100 nM.

Turning to `N#Cc1ccc(Oc2cc(Cl)cc(Cl)c2)c(S(=O)(=O)N2CCCCC2)c1` [Example 1-5], the IC50 was greater than 500 nM.

Consider `N#Cc1ccc(Oc2cc(Cl)cc(Cl)c2)c(S(=O)(=O)N2CC3CCN(Cc4ccccc4)C3C2)c1` (stereo not drawn) [Example 1-6], for which the IC50 is less than 100 nM.

For the molecule `CS(=O)(=O)NCC1CN(S(=O)(=O)c2cc(C#N)ccc2Oc2cc(Cl)cc(Cl)c2)CCN1` (stereo not drawn) [Example 1-7], the IC50 was less than 100 nM.

Take `CC(=O)NCC1CN(S(=O)(=O)c2cc(C#N)ccc2Oc2cc(Cl)cc(Cl)c2)CCN1` (stereo not drawn) [Example 1-8]: the IC50 is less than 100 nM.

With `CS(=O)(=O)NCC1CNCCN1S(=O)(=O)c1cc(C#N)ccc1Oc1cc(Cl)cc(Cl)c1` (stereo not drawn) [Example 1-9], the IC50 is less than 100 nM.

Regarding `CC(=O)NCC1CNCCN1S(=O)(=O)c1cc(C#N)ccc1Oc1cc(Cl)cc(Cl)c1` (stereo not drawn) [Example 1-10], the IC50 was less than 100 nM.

Regarding `N#Cc1ccc(Oc2cc(Cl)cc(Cl)c2)c(S(=O)(=O)N2CCC(N3C[C@H](O)[C@@H](O)C3)CC2)c1` [Example 1-11], the IC50 was in the range of 100 to 500 nM.

As to `COC(=O)C1CN(S(=O)(=O)c2cc(C#N)ccc2Oc2cc(Cl)cc(Cl)c2)CCCN1` (stereo not drawn) [Example 1-12], the IC50 was 100 to 500 nM.

For `COC(=O)[C@@H]1C[C@H](N2CCCC2)CN1S(=O)(=O)c1cc(C#N)ccc1Oc1cc(Cl)cc(Cl)c1` [Example 1-13], the IC50 was 100 to 500 nM.

In the case of `N#Cc1ccc(Oc2cc(Cl)cc(Cl)c2)c(S(=O)(=O)N2CC[C@H](NCCO)C2)c1` [Example 1-16], the IC50 is less than 100 nM.

Take `COC(=O)C1CNCCCN1S(=O)(=O)c1cc(C#N)ccc1Oc1cc(Cl)cc(Cl)c1` (stereo not drawn) [Example 1-22]: the IC50 was less than 100 nM.

For the molecule `N#Cc1ccc(Oc2cc(Cl)cc(Cl)c2)c(S(=O)(=O)N2CCNC[C@@H]2Cc2c[nH]c3ccccc23)c1` [Example 1-26], the IC50 is less than 100 nM.

Turning to `N#Cc1ccc(Oc2cc(Cl)cc(Cl)c2)c(S(=O)(=O)N2CCNCC2CN2C(=O)CCC2=O)c1` (stereo not drawn) [Example 1-27], the IC50 is less than 100 nM.

Consider `CS(=O)(=O)NCC1CN(S(=O)(=O)c2cc(C#N)ccc2Oc2cc(Cl)cc(Cl)c2)CCCN1` (stereo not drawn) [Example 1-28], for which the IC50 is less than 100 nM.

Turning to `CS(=O)(=O)NCC1CNCCCN1S(=O)(=O)c1cc(C#N)ccc1Oc1cc(Cl)cc(Cl)c1.Cl` (stereo not drawn) [Example 1-29], the IC50 was less than 100 nM.

As to `CC(=O)c1ccc(Oc2cc(Cl)cc(Cl)c2)c(S(=O)(=O)N2CCNCC2)c1` [Example 1-31], the IC50 was less than 100 nM.

As to `N#Cc1ccc(Oc2cc(Cl)cc(Cl)c2)c(S(=O)(=O)N[C@@H]2CN3CCC2CC3)c1` [Example 1-32], the IC50 was less than 100 nM.

On to `N#Cc1ccc(Oc2cc(Cl)cc(Cl)c2)c(S(=O)(=O)N2CCC(N3CCC[C@H]3C(=O)O)CC2)c1` [Example 1-33], for which the IC50 was less than 100 nM.

With `CC(C)(O)[C@@H]1CCCN1C1CCN(S(=O)(=O)c2cc(C#N)ccc2Oc2cc(Cl)cc(Cl)c2)CC1` [Example 1-34], the IC50 was less than 100 nM.

Take `N#Cc1ccc(Oc2cc(Cl)cc(Cl)c2)c(S(=O)(=O)N2CCCCC2CN2CCC(O)C2)c1` (stereo not drawn) [Example 1-35]: the IC50 lay in the range of 100 to 500 nM.

Regarding `N#Cc1ccc(Oc2cc(Cl)cc(Cl)c2)c(S(=O)(=O)N2CCNC(Cn3ncnn3)C2)c1` (stereo not drawn) [Example 1-36], the IC50 is less than 100 nM.

On to `Cl.N#Cc1ccc(Oc2cc(Cl)cc(Cl)c2)c(S(=O)(=O)N2CCNC(Cn3cncn3)C2)c1` (stereo not drawn) [Example 1-37], for which the IC50 was less than 100 nM.

Turning to `CCN1CCCN(S(=O)(=O)c2cc(C#N)ccc2Oc2cc(Cl)cc(Cl)c2)C(C(=O)OC)C1` (stereo not drawn) [Example 1-39], the IC50 was in the range of 100 to 500 nM.

On to `N#Cc1ccc(Oc2cc(Cl)cc(Cl)c2)c(S(=O)(=O)N(CCN2CCCC2)C2CCCC2)c1` [Example 1-42], for which the IC50 lay in the range of 100 to 500 nM.

In the case of `N#Cc1ccc(Oc2cc(Cl)cc(Cl)c2)c(S(=O)(=O)N2CCNC(CN3C(=O)CCC3=O)C2)c1` (stereo not drawn) [Example 1-43], the IC50 was less than 100 nM.

Take `N#Cc1ccc(Oc2cc(Cl)cc(Cl)c2)c(S(=O)(=O)N2CCC(N3CCCC3)C(CN3C(=O)CCC3=O)C2)c1` (stereo not drawn) [Example 1-44]: the IC50 is less than 100 nM.

With `N#Cc1ccc(Oc2cc(Cl)cc(Cl)c2)c(S(=O)(=O)N2CCC(N3CCC[C@H]3CO)CC2)c1` [Example 1-45], the IC50 was less than 100 nM.

On to `N#Cc1ccc(Oc2cc(Cl)cc(Cl)c2)c(S(=O)(=O)N2CCC[C@H]2CN2CCC[C@H]2CO)c1` [Example 1-46], for which the IC50 was less than 100 nM.

`N#Cc1ccc(Oc2cc(Cl)cc(Cl)c2)c(S(=O)(=O)C2CCNCC2)c1` [Example 2-1, 4-(3,5-Dichloro-phenoxy)-3-(piperidine-4-sulfonyl)-benzonitrile]: the IC50 is greater than 500 nM.

These data come from patent US9206186B2, “2-phenoxy- and 2-phenylsulfonamide derivatives with CCR3 antagonistic activity for the treatment of inflammatory or immunological disorders” (AXIKIN PHARMACEUTICALS, INC., priority 2003, dated 2015).
